Source: article PMC5096949 (Toxicology letters, 2016)
Entries after “also recorded” stand apart in the source; their conditions may differ. One block for each compound: values may come before it.

Legend:
[1] = target: T1, Human Recombinant FAAH (fatty acid amide hydrolase) (Homo sapiens, UniProt O00519); assay: FAAH inhibition, fluorimetric assay with OMP substrate, recombinant enzyme; type: biochemical; settings: for activity / potency towards FAAH (in words): recombinant FAAH; for time-dependence of FAAH inhibition: pre-incubation of enzyme with inhibitor up to 1 h
T1 sequence (O00519 1-579): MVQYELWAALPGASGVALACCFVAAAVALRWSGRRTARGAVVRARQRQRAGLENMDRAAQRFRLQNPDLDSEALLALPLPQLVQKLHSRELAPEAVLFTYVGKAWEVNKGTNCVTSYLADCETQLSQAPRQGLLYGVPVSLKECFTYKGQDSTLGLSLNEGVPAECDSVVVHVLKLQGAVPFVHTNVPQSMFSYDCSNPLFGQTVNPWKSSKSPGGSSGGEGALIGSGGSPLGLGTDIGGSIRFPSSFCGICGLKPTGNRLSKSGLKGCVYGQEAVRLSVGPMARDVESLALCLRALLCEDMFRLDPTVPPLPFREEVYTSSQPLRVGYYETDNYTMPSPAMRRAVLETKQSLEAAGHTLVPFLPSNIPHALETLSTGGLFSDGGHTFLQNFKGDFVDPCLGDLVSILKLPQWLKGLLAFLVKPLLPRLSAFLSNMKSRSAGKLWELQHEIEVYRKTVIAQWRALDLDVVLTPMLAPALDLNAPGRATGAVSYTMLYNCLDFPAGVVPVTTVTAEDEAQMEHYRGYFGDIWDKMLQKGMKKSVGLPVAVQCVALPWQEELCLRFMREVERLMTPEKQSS

[2] = test system: PPARγ, C/EBPα and FABP4 mRNA expression; assay: RT-PCR of adipocyte marker genes in 3T3-L1 cells; type: cell-based, Murine; settings: for effect on AEA-induced adipocyte marker expression: 3T3-L1, 10 μM compound, co-treatment with AEA 10 μM; for PPARγ, C/EBPα and FABP4 mRNA expression: 3T3-L1, 1, 10, 50 μM for 7 days, n = 3
[3] = target: T2, Human Recombinant hCE1 (carboxylesterase 1) (Homo sapiens, UniProt P23141); assay: Esterase inhibition, fluorimetric assay with CMNA substrate; type: biochemical
T2 sequence (P23141 18-567): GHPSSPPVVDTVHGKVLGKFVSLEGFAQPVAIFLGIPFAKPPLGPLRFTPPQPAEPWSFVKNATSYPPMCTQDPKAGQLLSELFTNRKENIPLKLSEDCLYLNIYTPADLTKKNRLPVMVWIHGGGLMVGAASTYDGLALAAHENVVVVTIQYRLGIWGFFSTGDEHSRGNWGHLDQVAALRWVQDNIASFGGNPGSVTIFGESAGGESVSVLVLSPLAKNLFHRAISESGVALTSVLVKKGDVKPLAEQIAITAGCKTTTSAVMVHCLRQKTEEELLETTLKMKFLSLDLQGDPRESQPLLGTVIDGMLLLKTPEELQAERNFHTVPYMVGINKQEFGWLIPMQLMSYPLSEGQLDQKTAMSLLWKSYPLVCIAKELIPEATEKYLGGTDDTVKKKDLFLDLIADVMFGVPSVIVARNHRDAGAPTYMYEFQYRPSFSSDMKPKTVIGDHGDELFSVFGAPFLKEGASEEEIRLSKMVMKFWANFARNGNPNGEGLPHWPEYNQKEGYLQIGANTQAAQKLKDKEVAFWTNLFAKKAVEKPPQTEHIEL

[4] = target: T3, Human Recombinant hCE2 (carboxylesterase 2) (Homo sapiens, UniProt O00748); assay: as above; type: biochemical
T3 sequence (O00748 27-559): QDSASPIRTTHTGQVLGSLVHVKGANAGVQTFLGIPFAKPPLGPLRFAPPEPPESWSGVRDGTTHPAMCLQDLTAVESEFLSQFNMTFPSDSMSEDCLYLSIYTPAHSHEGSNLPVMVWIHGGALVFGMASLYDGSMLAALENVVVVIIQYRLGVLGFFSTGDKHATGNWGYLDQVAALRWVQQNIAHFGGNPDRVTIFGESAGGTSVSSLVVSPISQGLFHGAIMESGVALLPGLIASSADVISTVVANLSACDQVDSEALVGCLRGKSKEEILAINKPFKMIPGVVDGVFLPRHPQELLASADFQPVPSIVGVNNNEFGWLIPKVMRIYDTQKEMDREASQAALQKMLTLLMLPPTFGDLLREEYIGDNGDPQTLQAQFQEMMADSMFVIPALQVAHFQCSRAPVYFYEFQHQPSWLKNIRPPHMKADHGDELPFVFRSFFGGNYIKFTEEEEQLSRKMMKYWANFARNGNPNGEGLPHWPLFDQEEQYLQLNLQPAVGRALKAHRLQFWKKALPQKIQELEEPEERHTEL

[5] = target: T4, Mouse Brain Microsomes (FAAH) (Mus musculus, UniProt O08914); assay: FAAH inhibition in brain microsomes, OMP hydrolysis
T4 sequence (O08914 1-579): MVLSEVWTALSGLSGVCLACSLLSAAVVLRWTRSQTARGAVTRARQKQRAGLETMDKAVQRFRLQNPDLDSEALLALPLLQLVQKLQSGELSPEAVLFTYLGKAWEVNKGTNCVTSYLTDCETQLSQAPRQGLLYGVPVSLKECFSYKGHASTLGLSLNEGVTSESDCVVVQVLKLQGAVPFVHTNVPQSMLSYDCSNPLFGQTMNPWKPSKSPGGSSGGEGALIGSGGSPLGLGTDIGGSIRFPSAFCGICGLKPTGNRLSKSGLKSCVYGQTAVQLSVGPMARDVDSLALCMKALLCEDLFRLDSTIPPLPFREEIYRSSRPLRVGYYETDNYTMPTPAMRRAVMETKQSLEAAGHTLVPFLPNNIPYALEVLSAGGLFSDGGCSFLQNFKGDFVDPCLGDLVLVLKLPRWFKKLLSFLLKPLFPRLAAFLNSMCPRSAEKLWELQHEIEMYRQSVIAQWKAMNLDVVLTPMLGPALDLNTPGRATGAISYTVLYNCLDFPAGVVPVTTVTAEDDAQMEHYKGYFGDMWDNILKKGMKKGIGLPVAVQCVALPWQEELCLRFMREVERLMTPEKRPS

3T3-L1 cells = assay: 3T3-L1 adipocyte differentiation, Oil Red O staining of lipid accumulation; type: cell-based, Murine; settings: for effect on AEA-mediated adipocyte differentiation (Oil Red O): 10 μM compound, co-treatment with AEA 10 μM, 7 days; for adipocyte differentiation / lipid accumulation (Oil Red O staining): 1, 10, 50 μM for 7 days
[6] = target: T5, Rat Brain Microsomes (FAAH) (Rattus norvegicus, UniProt P97612); assay: FAAH inhibition in brain microsomes, OMP hydrolysis
T5 sequence (P97612 1-579): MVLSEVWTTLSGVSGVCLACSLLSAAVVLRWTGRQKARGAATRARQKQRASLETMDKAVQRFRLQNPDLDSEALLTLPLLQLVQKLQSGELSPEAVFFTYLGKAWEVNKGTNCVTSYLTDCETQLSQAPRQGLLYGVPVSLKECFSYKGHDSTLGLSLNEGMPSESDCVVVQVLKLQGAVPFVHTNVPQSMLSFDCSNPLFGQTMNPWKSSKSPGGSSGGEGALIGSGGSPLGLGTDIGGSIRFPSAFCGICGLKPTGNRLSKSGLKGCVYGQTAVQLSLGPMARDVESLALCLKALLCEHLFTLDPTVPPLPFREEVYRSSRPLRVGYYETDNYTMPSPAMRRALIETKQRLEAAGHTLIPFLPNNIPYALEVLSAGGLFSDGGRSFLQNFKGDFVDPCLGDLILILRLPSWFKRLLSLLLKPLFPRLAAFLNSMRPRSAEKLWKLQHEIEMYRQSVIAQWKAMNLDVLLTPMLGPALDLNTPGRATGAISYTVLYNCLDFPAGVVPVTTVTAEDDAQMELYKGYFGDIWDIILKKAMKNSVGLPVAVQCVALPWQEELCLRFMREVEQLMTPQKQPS

[7] = target: T6, Human Recombinant AADAC (arylacetamide deacetylase) (Homo sapiens, UniProt P22760); assay: Esterase inhibition, fluorimetric assay with CMNA substrate; type: biochemical
T6 sequence (P22760 1-399): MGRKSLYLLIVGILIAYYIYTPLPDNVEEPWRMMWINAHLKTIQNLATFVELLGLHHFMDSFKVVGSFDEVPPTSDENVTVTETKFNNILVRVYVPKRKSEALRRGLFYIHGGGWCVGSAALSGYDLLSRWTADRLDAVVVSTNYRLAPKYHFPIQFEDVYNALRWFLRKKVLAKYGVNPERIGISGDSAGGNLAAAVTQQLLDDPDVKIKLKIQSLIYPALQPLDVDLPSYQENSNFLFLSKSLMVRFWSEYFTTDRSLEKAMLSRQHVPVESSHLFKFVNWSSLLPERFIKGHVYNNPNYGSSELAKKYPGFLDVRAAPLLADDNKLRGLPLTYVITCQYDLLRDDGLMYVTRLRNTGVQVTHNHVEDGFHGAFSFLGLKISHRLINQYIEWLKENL

[8] = human exposure; ref Calafat et al., 2010; Tefre de Renzy-Martin et al., 2014; cited from earlier work
[9] = as inhibitor concentration increases

activity / potency towards FAAH (in words) [1]: completely inactive
Compound: O=C(O)c1ccc(O)cc1 [4-HO-benzoate, 4-hydroxybenzoic acid]

Compound: CCCCC/C=C\C/C=C\C/C=C\C/C=C\CCCC(=O)NCCO [AEA, arachidonoyl ethanolamide, reference compound]
expression of markers of differentiation ([2]; 3T3-L1, AEA 10 μM, 7 days): increased expression of several markers of differentiation (PPARγ and C/EBPα)

IC50 [3]: > 10000 nM
IC50 [4]: > 10000 nM
mechanism of FAAH inhibition [1]: mixed type mechanism
Ki ([1]; Ki, linear mixed-type model of inhibition): 52 ± 14 nM
potency relative to URB597 (less potent) ([1]; after a 5 min incubation): 3 fold
change in KM app [1, 9]: 18 to 98 µM
change in Vmax app [1, 9]: 5.5 RFU/s to 2.0 RFU/s
α value ([1]; linear mixed-type model of inhibition): 9.7 ± 6.6
time-dependence of FAAH inhibition [1]: independent on incubation time
Ki ([1]; upper limit of relative Ki, at saturating substrate, mixed-type interaction): ≤ 1000 nM
IC50 [5]: 210 nM
IC50 [6]: 230 nM
IC50 [7]: > 10000 nM
Compound: O=C(OCc1ccccc1)c1ccc(O)cc1 [Benzylparaben, benzylparaben]
effect on AEA-induced adipocyte marker expression ([2]; 7 days): not significantly changed
PPARγ, C/EBPα and FABP4 mRNA expression [2]: enhanced PPARγ, C/EBPα and FABP4 mRNA expression
effect on AEA-mediated adipocyte differentiation (Oil Red O) (3T3-L1 cells): do not synergize to increase adipocyte differentiation
adipocyte differentiation / lipid accumulation (Oil Red O staining) (3T3-L1 cells): dose-dependently enhanced 3T3-L1 adipocyte differentiation

Compound: CCCCOC(=O)c1ccc(O)cc1 [Butylparaben, butylparaben]
IC50 [3]: > 10000 nM
urinary concentrations [8]: 0.1 to 0.5 µM
IC50 [4]: > 10000 nM
effect on AEA-induced adipocyte marker expression ([2]; 7 days): not significantly changed
PPARγ, C/EBPα and FABP4 mRNA expression [2]: enhanced PPARγ, C/EBPα and FABP4 mRNA expression
time-dependence of FAAH inhibition [1]: independent on incubation time
IC50 [5]: 1600 nM
effect on AEA-mediated adipocyte differentiation (Oil Red O) (3T3-L1 cells): do not synergize to increase adipocyte differentiation
adipocyte differentiation / lipid accumulation (Oil Red O staining) (3T3-L1 cells): dose-dependently enhanced 3T3-L1 adipocyte differentiation
IC50 [6]: 1100 nM
IC50 [7]: > 10000 nM

activity / potency towards FAAH (in words) [1]: completely removed potency
Compound: COc1ccc(C(=O)OCc2ccccc2)cc1 [Compound 2]

activity / potency towards FAAH (in words) [1]: completely removed potency
Compound: O=C(OCc1ccccc1)c1ccccc1 [Compound 3]

activity / potency towards FAAH (in words) [1]: completely removed potency
Compound: O=C(OCc1ccccc1)c1ccc([N+](=O)[O-])cc1 [Compound 4]

decrease in potency relative to benzylparaben ([1]; FAAH IC50, 5 min pre-incubation): 2 fold
Compound: O=C(OCC1CCCCC1)c1ccc(O)cc1 [Compound 5]

activity / potency towards FAAH (in words) [1]: no change in potency
Compound: CCCCCCCOC(=O)c1ccc(O)cc1 [Compound 6, heptylparaben]

activity / potency towards FAAH (in words) [1]: completely inactive
Compound: COC(=O)c1ccc(O)cc1 [Methylparaben, methylparaben]

Compound: O=C(Nc1ccccc1)N1CCN(Cc2ccc3ccccc3n2)CC1 [PF622, N-phenyl-4-(quinolin-2-ylmethyl)piperazine-1-carboxamide]
effect on AEA-mediated adipocyte differentiation (Oil Red O) (3T3-L1 cells): do not synergize to increase adipocyte differentiation
adipocyte differentiation / lipid accumulation (Oil Red O staining) (3T3-L1 cells): had no effects at any of the doses tested

Compound: NC(=O)c1cccc(-c2cccc(OC(=O)NC3CCCCC3)c2)c1 [URB597, 3′-carbamoyl-[1,1′-biphenyl]-3-yl cyclohexylcarbamate, reference compound]
IC50 [3]: 2200 nM
IC50 [4]: 730 nM
effect on AEA-induced adipocyte marker expression ([2]; 7 days): not significantly changed
PPARγ, C/EBPα and FABP4 mRNA expression [2]: increased PPARγ, C/EBPα and FABP4 mRNA expression
OMP hydrolysis remaining ([5]; 50 nM, mouse brain microsomes): less than 20%
inhibition at 0.05 µM ([5]; read-out: inhibition of activity (OMP hydrolysis)): > 80%
effect on AEA-mediated adipocyte differentiation (Oil Red O) (3T3-L1 cells): do not synergize to increase adipocyte differentiation
adipocyte differentiation / lipid accumulation (Oil Red O staining) (3T3-L1 cells): only exposure to 10 μM of URB597 resulted in increased lipid accumulation; also recorded: increased differentiation and only at a concentration of 10 μM, not at 50 μM
IC50 [7]: > 10000 nM
